BigSolDB 2.1

COC(=O)c1ccccc1S(N)(=O)=O
Settings | solubility (mole fraction)
in 2-butanone, 273.15 K | 0.028
in 2-butanone, 278.15 K | 0.0329
in 2-butanone, 283.15 K | 0.0385
in 2-butanone, 287.95 K | 0.0446
in 2-butanone, 293.85 K | 0.0529
in 2-butanone, 298.75 K | 0.0609
in 2-butanone, 303.45 K | 0.0691
in 2-butanone, 308.15 K | 0.0784
in 2-butanone, 313.85 K | 0.0907
in 2-butanone, 318.65 K | 0.102
in 2-butanone, 324.15 K | 0.117
in 2-pentanone, 273.15 K | 0.0185
in 2-pentanone, 278.15 K | 0.0218
in 2-pentanone, 283.15 K | 0.0256
in 2-pentanone, 287.95 K | 0.0298
in 2-pentanone, 293.85 K | 0.0355
in 2-pentanone, 298.75 K | 0.0409
in 2-pentanone, 303.45 K | 0.0466
in 2-pentanone, 308.15 K | 0.053
in 2-pentanone, 313.85 K | 0.0617
in 2-pentanone, 318.65 K | 0.0695
in 2-pentanone, 324.15 K | 0.0797
in acetone, 273.15 K | 0.0414
in acetone, 278.15 K | 0.0483
in acetone, 283.15 K | 0.0561
in acetone, 287.95 K | 0.0643
in acetone, 293.85 K | 0.0757
in acetone, 298.75 K | 0.0863
in acetone, 303.45 K | 0.0976
in acetone, 308.15 K | 0.11
in acetone, 313.85 K | 0.126
in acetone, 318.65 K | 0.141
in acetone, 324.15 K | 0.16
in acetonitrile, 273.15 K | 0.0188
in acetonitrile, 278.15 K | 0.0231
in acetonitrile, 283.15 K | 0.0282
in acetonitrile, 287.95 K | 0.0339
in acetonitrile, 293.85 K | 0.0423
in acetonitrile, 298.75 K | 0.0504
in acetonitrile, 303.45 K | 0.0594
in acetonitrile, 308.15 K | 0.0695
in acetonitrile, 313.85 K | 0.0835
in acetonitrile, 318.65 K | 0.0975
in acetonitrile, 324.15 K | 0.115
in cyclopentanone, 273.15 K | 0.0537
in cyclopentanone, 278.15 K | 0.0616
in cyclopentanone, 283.15 K | 0.0704
in cyclopentanone, 287.95 K | 0.0795
in cyclopentanone, 293.85 K | 0.092
in cyclopentanone, 298.75 K | 0.103
in cyclopentanone, 303.45 K | 0.115
in cyclopentanone, 308.15 K | 0.128
in cyclopentanone, 313.85 K | 0.145
in cyclopentanone, 318.65 K | 0.16
in cyclopentanone, 324.15 K | 0.179
in ethanol, 272.15 K | 0.00172
in ethanol, 278.75 K | 0.00252
in ethanol, 283.15 K | 0.00322
in ethanol, 288.15 K | 0.0042
in ethanol, 293.05 K | 0.0054
in ethanol, 298.05 K | 0.00692
in ethanol, 303.15 K | 0.00887
in ethanol, 308.05 K | 0.0112
in ethanol, 312.15 K | 0.0134
in ethanol, 318.15 K | 0.0175
in ethanol, 324.15 K | 0.0226
in ethyl acetate, 273.15 K | 0.0112
in ethyl acetate, 278.15 K | 0.0135
in ethyl acetate, 283.15 K | 0.0162
in ethyl acetate, 287.95 K | 0.0192
in ethyl acetate, 293.85 K | 0.0236
in ethyl acetate, 298.75 K | 0.0278
in ethyl acetate, 303.45 K | 0.0323
in ethyl acetate, 308.15 K | 0.0373
in ethyl acetate, 313.85 K | 0.0444
in ethyl acetate, 318.65 K | 0.0509
in ethyl acetate, 324.15 K | 0.0596
in ethyl formate, 273.15 K | 0.00969
in ethyl formate, 278.15 K | 0.0119
in ethyl formate, 283.15 K | 0.0145
in ethyl formate, 287.95 K | 0.0174
in ethyl formate, 293.85 K | 0.0215
in ethyl formate, 298.75 K | 0.0256
in ethyl formate, 303.45 K | 0.03
in ethyl formate, 308.15 K | 0.0351
in ethyl formate, 313.85 K | 0.0421
in ethyl formate, 318.65 K | 0.049
in ethyl formate, 324.15 K | 0.0578
in isobutanol, 272.15 K | 0.000673
in isobutanol, 278.75 K | 0.001
in isobutanol, 283.15 K | 0.00129
in isobutanol, 288.15 K | 0.00171
in isobutanol, 293.05 K | 0.00224
in isobutanol, 298.05 K | 0.00291
in isobutanol, 303.15 K | 0.00378
in isobutanol, 308.05 K | 0.00479
in isobutanol, 312.15 K | 0.00586
in isobutanol, 318.15 K | 0.00775
in isobutanol, 324.15 K | 0.0101
in isopentanol, 272.15 K | 0.000712
in isopentanol, 278.75 K | 0.00105
in isopentanol, 283.15 K | 0.00135
in isopentanol, 288.15 K | 0.00177
in isopentanol, 293.05 K | 0.00229
in isopentanol, 298.05 K | 0.00296
in isopentanol, 303.15 K | 0.00381
in isopentanol, 308.05 K | 0.00483
in isopentanol, 312.15 K | 0.00586
in isopentanol, 318.15 K | 0.00764
in isopentanol, 324.15 K | 0.00989
in isopropanol, 272.15 K | 0.000871
in isopropanol, 278.75 K | 0.00134
in isopropanol, 283.15 K | 0.00176
in isopropanol, 288.15 K | 0.00239
in isopropanol, 293.05 K | 0.00317
in isopropanol, 298.05 K | 0.00422
in isopropanol, 303.15 K | 0.00557
in isopropanol, 308.05 K | 0.00726
in isopropanol, 312.15 K | 0.00894
in isopropanol, 318.15 K | 0.0121
in isopropanol, 324.15 K | 0.0161
in methanol, 272.15 K | 0.00311
in methanol, 278.75 K | 0.00462
in methanol, 283.15 K | 0.00595
in methanol, 288.15 K | 0.00788
in methanol, 293.05 K | 0.0102
in methanol, 298.05 K | 0.0133
in methanol, 303.15 K | 0.0171
in methanol, 308.05 K | 0.0217
in methanol, 312.15 K | 0.0264
in methanol, 318.15 K | 0.0348
in methanol, 324.15 K | 0.0454
in methyl acetate, 273.15 K | 0.0162
in methyl acetate, 278.15 K | 0.0196
in methyl acetate, 283.15 K | 0.0235
in methyl acetate, 287.95 K | 0.0279
in methyl acetate, 293.85 K | 0.0341
in methyl acetate, 298.75 K | 0.04
in methyl acetate, 303.45 K | 0.0465
in methyl acetate, 308.15 K | 0.0537
in methyl acetate, 313.85 K | 0.0637
in methyl acetate, 318.65 K | 0.0731
in methyl acetate, 324.15 K | 0.0851
in n-butanol, 272.15 K | 0.00092
in n-butanol, 278.75 K | 0.00137
in n-butanol, 283.15 K | 0.00177
in n-butanol, 288.15 K | 0.00234
in n-butanol, 293.05 K | 0.00307
in n-butanol, 298.05 K | 0.004
in n-butanol, 303.15 K | 0.00518
in n-butanol, 308.05 K | 0.00659
in n-butanol, 312.15 K | 0.00801
in n-butanol, 318.15 K | 0.0106
in n-butanol, 324.15 K | 0.0139
in n-pentanol, 272.15 K | 0.000797
in n-pentanol, 278.75 K | 0.00118
in n-pentanol, 283.15 K | 0.0015
in n-pentanol, 288.15 K | 0.00197
in n-pentanol, 293.05 K | 0.00255
in n-pentanol, 298.05 K | 0.0033
in n-pentanol, 303.15 K | 0.00424
in n-pentanol, 308.05 K | 0.00534
in n-pentanol, 312.15 K | 0.0065
in n-pentanol, 318.15 K | 0.00849
in n-pentanol, 324.15 K | 0.011
in n-propanol, 272.15 K | 0.00106
in n-propanol, 278.75 K | 0.00159
in n-propanol, 283.15 K | 0.00206
in n-propanol, 288.15 K | 0.00274
in n-propanol, 293.05 K | 0.00357
in n-propanol, 298.05 K | 0.00469
in n-propanol, 303.15 K | 0.00609
in n-propanol, 308.05 K | 0.00778
in n-propanol, 312.15 K | 0.00946
in n-propanol, 318.15 K | 0.0125
in n-propanol, 324.15 K | 0.0164
